Source: PubChem BioAssay AID1963974 (Molecular Pharmacology Branch, DTP, NCI, 2024)

Tested on: 648629-189-R-J1-PDC spheroids with HUVEC/MSC, viability
Experiment: Anticancer human tumor 648629-189-R-J1-PDC patient-derived bladder carcinoma cell line growth inhibition [PI3K]
Conditions: for IC50: curve of first compound; for viability, T/C: stronger effect = lower value
Outline: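 Viability of mixed-cell spheroids was determined after exposure to pairwise combinations, one partner being inavolisib, alpelisib, duvelisib or copanlisib. Highest tested concentration matched clinical Cmax where known and 10 microM where not, descending in half-log steps.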

[1] = second compound 0.0316 µM, first compound 0.0316 µM
[2] = second compound 0.0316 µM, first compound 0.1 µM
[3] = second compound 0.0316 µM, first compound 0.316 µM
[4] = second compound 0.0316 µM, first compound 1 µM
[5] = second compound 0.0316 µM, first compound 3.16 µM
[6] = second compound 0.0316 µM, first compound 10 µM
[7] = second compound 0.1 µM, first compound 0.0316 µM
[8] = second compound 0.1 µM, first compound 0.1 µM
[9] = second compound 0.1 µM, first compound 0.316 µM
[10] = second compound 0.1 µM, first compound 1 µM
[11] = second compound 0.1 µM, first compound 3.16 µM
[12] = second compound 0.1 µM, first compound 10 µM
[13] = second compound 0.316 µM, first compound 0.0316 µM
[14] = second compound 0.316 µM, first compound 0.1 µM
[15] = second compound 0.316 µM, first compound 0.316 µM
[16] = second compound 0.316 µM, first compound 1 µM
[17] = second compound 0.316 µM, first compound 3.16 µM
[18] = second compound 0.316 µM, first compound 10 µM
[19] = second compound 1 µM, first compound 0.0316 µM
[20] = second compound 1 µM, first compound 0.1 µM
[21] = second compound 1 µM, first compound 0.316 µM
[22] = second compound 1 µM, first compound 1 µM
[23] = second compound 1 µM, first compound 3.16 µM
[24] = second compound 1 µM, first compound 10 µM
[25] = second compound 3.16 µM, first compound 0.0316 µM
[26] = second compound 3.16 µM, first compound 0.1 µM
[27] = second compound 3.16 µM, first compound 0.316 µM
[28] = second compound 3.16 µM, first compound 1 µM
[29] = second compound 3.16 µM, first compound 3.16 µM
[30] = second compound 3.16 µM, first compound 10 µM
[31] = second compound 10 µM, first compound 0.0316 µM
[32] = second compound 10 µM, first compound 0.1 µM
[33] = second compound 10 µM, first compound 0.316 µM
[34] = second compound 10 µM, first compound 1 µM
[35] = second compound 10 µM, first compound 3.16 µM
[36] = second compound 10 µM, first compound 10 µM
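Further: spheroids exposed to agents for seven days before reading.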
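Wherever viability, T/C is given: percent of vehicle control luminescence where 100% = DMSO treated spheroids.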

Work on `CC1(C)CCC(Nc2ncc(C(F)(F)F)c(-c3c[nH]c4c(P(C)(C)=O)c(C#N)ccc34)n2)CN1` (stereo unspecified) + Cc1nc(NC(=O)N2CCCC2C(N)=O)sc1-c1ccnc(C(C)(C)C(F)(F)F)c1 yielded an IC50 (second compound 0.0316 µM) of less than 0.0316 µM, an IC50 (second compound 0.1 µM) of less than 0.0316 µM and an IC50 (second compound 0.316 µM) of less than 0.0316 µM. The IC50 (second compound 1 µM) was less than 0.0316 µM, the IC50 (second compound 3.16 µM) was less than 0.0316 µM and the IC50 (second compound 10 µM) was less than 0.0316 µM. It also gave a viability, T/C [1] of 29.4%, a viability, T/C [2] of 27.6% and a viability, T/C [3] of 25.6%. For the same molecule, the viability, T/C [4] was 33.7%, the viability, T/C [5] was 40.7% and the viability, T/C [6] was 5.12%. For the same molecule, the viability, T/C [7] was 24.7%, the viability, T/C [8] was 27.4% and the viability, T/C [9] was 29.3%. It also gave a viability, T/C [10] of 38.2%, a viability, T/C [11] of 40.9% and a viability, T/C [12] of 4.14%. It also gave a viability, T/C [13] of 27.6%, a viability, T/C [14] of 24.7% and a viability, T/C [15] of 30.5%. The viability, T/C [16] was 27.9%, the viability, T/C [17] was 36.4% and the viability, T/C [18] was 4.18%. It also gave a viability, T/C [19] of 26.8%, a viability, T/C [20] of 23.9% and a viability, T/C [21] of 26%. For the same molecule, the viability, T/C [22] was 27.4%, the viability, T/C [23] was 27.4% and the viability, T/C [24] was 2.87%. The viability, T/C [25] was 26%, the viability, T/C [26] was 23.1% and the viability, T/C [27] was 21%. For the same molecule, the viability, T/C [28] was 22.2%, the viability, T/C [29] was 24.7% and the viability, T/C [30] was 1.62%. It also gave a viability, T/C [31] of 21.5%, a viability, T/C [32] of 17.1% and a viability, T/C [33] of 18.1%. It also gave a viability, T/C [34] of 16.6%, a viability, T/C [35] of 15.5% and a viability, T/C [36] of 0.41%.

`C#Cc1c(F)ccc2cc(O)cc(-c3ncc4c(N5CC6CCC(C5)N6)nc(OCC56CCCN5CC(F)C6)nc4c3F)c12` (stereo unspecified) + CC(Nc1ncnc2nc[nH]c12)c1cc2cccc(Cl)c2c(=O)n1-c1ccccc1 gave an IC50 (second compound 0.0316 µM) greater than 10 µM, an IC50 (second compound 0.1 µM) greater than 10 µM and an IC50 (second compound 0.316 µM) greater than 10 µM. For the same molecule, the IC50 (second compound 1 µM) was greater than 10 µM, the IC50 (second compound 3.16 µM) was greater than 10 µM and the IC50 (second compound 10 µM) was greater than 10 µM. For the same molecule, the viability, T/C [1] was 116%, the viability, T/C [2] was 114% and the viability, T/C [3] was 103%. For the same molecule, the viability, T/C [4] was 107%, the viability, T/C [5] was 105% and the viability, T/C [6] was 117%. It also gave a viability, T/C [7] of 116%, a viability, T/C [8] of 100% and a viability, T/C [9] of 104%. It also gave a viability, T/C [10] of 106%, a viability, T/C [11] of 117% and a viability, T/C [12] of 110%. It also gave a viability, T/C [13] of 102%, a viability, T/C [14] of 110% and a viability, T/C [15] of 101%. The viability, T/C [16] was 113%, the viability, T/C [17] was 116% and the viability, T/C [18] was 111%. For the same molecule, the viability, T/C [19] was 92.8%, the viability, T/C [20] was 104% and the viability, T/C [21] was 107%. For the same molecule, the viability, T/C [22] was 114%, the viability, T/C [23] was 107% and the viability, T/C [24] was 94.4%. It also gave a viability, T/C [25] of 92%, a viability, T/C [26] of 91.4% and a viability, T/C [27] of 90.7%. It also gave a viability, T/C [28] of 90.1%, a viability, T/C [29] of 93.4% and a viability, T/C [30] of 88.1%. It also gave a viability, T/C [31] of 90.7%, a viability, T/C [32] of 86.1% and a viability, T/C [33] of 75.7%. The viability, T/C [34] was 102%, the viability, T/C [35] was 92.5% and the viability, T/C [36] was 80.3%.

`CC1(C)CCC(CN2CCN(c3ccc(C(=O)NS(=O)(=O)c4ccc(NCC5CCOCC5)c([N+](=O)[O-])c4)c(Oc4cnc5[nH]ccc5c4)c3)CC2)=C(c2ccc(Cl)cc2)C1` + COc1c(OCCCN2CCOCC2)ccc2c3n(c(=NC(=O)c4cnc(N)nc4)nc12)CCN3 was tested, and the IC50 (second compound 0.00316 µM) was greater than 10 µM, the IC50 (second compound 0.01 µM) was greater than 10 µM and the IC50 (second compound 0.0316 µM) was greater than 10 µM. It also gave an IC50 (second compound 0.1 µM) greater than 10 µM, an IC50 (second compound 0.316 µM) of less than 0.0316 µM and an IC50 (second compound 1 µM) of less than 0.0316 µM. It also gave a viability, T/C (second compound 0.00316 µM, first compound 0.0316 µM) of 107%, a viability, T/C (second compound 0.00316 µM, first compound 0.1 µM) of 97.6% and a viability, T/C (second compound 0.00316 µM, first compound 0.316 µM) of 119%. For the same molecule, the viability, T/C (second compound 0.00316 µM, first compound 1 µM) was 108%, the viability, T/C (second compound 0.00316 µM, first compound 3.16 µM) was 86.5% and the viability, T/C (second compound 0.00316 µM, first compound 10 µM) was 98.2%. For the same molecule, the viability, T/C (second compound 0.01 µM, first compound 0.0316 µM) was 104%, the viability, T/C (second compound 0.01 µM, first compound 0.1 µM) was 106% and the viability, T/C (second compound 0.01 µM, first compound 0.316 µM) was 106%. For the same molecule, the viability, T/C (second compound 0.01 µM, first compound 1 µM) was 91.2%, the viability, T/C (second compound 0.01 µM, first compound 3.16 µM) was 91% and the viability, T/C (second compound 0.01 µM, first compound 10 µM) was 102%. It also gave a viability, T/C [1] of 97%, a viability, T/C [2] of 99.8% and a viability, T/C [3] of 114%. It also gave a viability, T/C [4] of 89.5%, a viability, T/C [5] of 92.7% and a viability, T/C [6] of 102%. It also gave a viability, T/C [7] of 65.7%, a viability, T/C [8] of 68.8% and a viability, T/C [9] of 65.8%. It also gave a viability, T/C [10] of 63.8%, a viability, T/C [11] of 59.3% and a viability, T/C [12] of 58.4%. For the same molecule, the viability, T/C [13] was 24.1%, the viability, T/C [14] was 22.1% and the viability, T/C [15] was 23.5%. The viability, T/C [16] was 19.9%, the viability, T/C [17] was 23.7% and the viability, T/C [18] was 19.6%. For the same molecule, the viability, T/C [19] was 4.02%, the viability, T/C [20] was 3.65% and the viability, T/C [21] was 4.06%. It also gave a viability, T/C [22] of 3.2%, a viability, T/C [23] of 3.26% and a viability, T/C [24] of 2.9%.
